Results as given in patent US7090996B2, “Process for examining membrane enclosed biocompartments” (Micronas GmbH, priority 2000, dated 2006).

System: biocompartments 1 (biological cells)
Test: Micro-flow chamber ISFET measurement of acidification and respiratory activity of biocompartments
Type: cell-based
Settings: for acidification ΔpH−31 activated by the biocompartments / respiratory activity of the biocompartments: agent in culture medium, stand-still phase of pump, compared with agent-free medium (FIG. 5)
Text: In a process for the examining of membrane enclosed biocompartments, biocompartments 1 were designed as biological cells placed in a micro-flow chamber 2. […] The space 3 is provided with an inlet opening 4 and an exit opening 5 for nutrient or culture medium. The chamber housing has a chamber base part 6 and a top part 7 which fits said base part 6 and the two parts are sealed liquid tight to one another by an interposed sealing ring 8.
The inlet opening 4 of the measurement space is connected to the measuring space 3 by a feed conduit 9, which in turn is connected to a culture medium supply 10. A pump 11 is placed in the feed canal 9 for the transport of the culture medium. The pump 11 can be turned on and off by means of a control apparatus (not shown). The exit opening 5 of the micro-flow chamber 2 is joined by means of a connecting line 12, to an exhaust opening 13 for release of the culture medium. In the measuring space 3, the biocompartments 1 stand in contact with the culture medium.
In the base of the measuring space 3, are placed a plurality of ISFET's 14. […] Between drain 16 and source 17, is a gate 18. Gate 18, drain 16 and source 17 are electrically insulated from the measurement space 3 by means of a silicon nitride layer (not shown). The silicon nitride layer forms on its side remote from the gate 18, an active sensor layer. By means of which layer, the ISFET 14 is controllable through the hydrogen ions present in the culture medium. Gate 18, drain 16 and source 17 of the ISFET are connected with a known evaluation apparatus for the determination of the pH value of the culture medium which is somewhat proportional to measurement signal of the respective ISFET 14.
As is particularly well presented in FIG. 2, an electrode 19 is placed in close proximity to the gates 18. This electrode 19 is constructed of a noble metal, such as palladium and is in direct contact with the culture medium.
A reference electrode 20 is paired with the operational electrode 19, which contacts the culture medium at a spatial distance from the ISFET 14. […] The reference electrode 20 and the operational electrodes 19 can be connected to an electrical source of potential for the application of an electric potential on the culture medium.
By means of the above described measurement arrangement, the respiratory activities of the biocompartments 1 can be indirectly measured. To carry out this purpose, the pump 11, which acts to transport the through-put of the culture medium through the measurement space 3, is temporarily stopped. In FIG. 4, the period of time during which the through-put in the measurement space 3 is stopped, is designated as the time T1 (stopping the pump 11) and T2 (starting the pump 11). This time interval can run, for instance, some 8 minutes.
Subsequently, by means of the ISFET 14, a first pH−1 is measured for the pH value of the culture medium, preparatory to a first pH measurement pair. […] When this occurs, this potential preferably is set at some −700 to −800 millivolts. In the embodiment of FIG. 3, this potential is applied to the electrodes 19, 20. The surface of the operational electrode 19 exposed to contact with the culture medium is chosen to be as small as possible with potential measuring preferably less than 1000 μm^2, so that, during the application of electrical voltage, the consumption of oxygen at the operational electrode 19 will be held at the lowest possible level. […]

Compound	acidification ΔpH−31 activated by the biocompartments	respiratory activity of the biocompartments	viability of the biocompartments (agent in culture medium (FIG. 7))
O=C(O)CI [iodine acetate]	recedes	increase	–
Triton®	no longer influence the culture medium	no further sign of respiratory activity	dying out
